How the values were obtained:
Type in all cases: in vivo
CFI female mice [1] = experiment: Antilipogenic evaluation of test compounds - mouse study (Example 6, procedure of Example 4); conditions: for effectiveness as an antilipogenic agent: versus related analogues
Protocol: CFI female mice from Carworth Farms are received when they are six-weeks old. They are housed ten to a cage in air-conditioned rooms (22° C. to 25° C.) with automatically-controlled lights, 14 hours on and ten hours off. The basal diet used in these studies is Purina Laboratory Chow (see description below) which is supplied ad libitum.
Thirteen days after arrival, the mice are weighed in groups of ten and assigned at random to the different treatments. Each of the treatments is tested in three replicates, i.e., in three cages of ten mice each. There are ten cages of ten control mice each. Drugs are mixed in the diet at the dosage level indicated. Feed and water are offered ad libitum for a 12-day test period. Feed spilled is collected during the test period. At the end of the test period, the collected feed is weighed, and the mean feed consumption per cage of ten mice is determined for each treatment. The mice are weighed as a group of ten, and the weight gain determined. The mice are sacrificed by cervical dislocation. The right uterine fat pad of each mouse is removed. The fat pads for each cage of ten mice are weighed as a unit. Reduction in fat pad weights of animals is generally indicative of a reduction of total body fat of the treated animals.
Following the procedure of Example 4, the analogues of the compounds of the invention in the subject Application are evaluated as antilipogenic agents.

[2] = system: Hubbard X Hubbard Crossbred Chicks; experiment: Evaluation as feed additive in poultry (growth rate, feed utilization, carcass yield), seven weeks; conditions: for Gain: seven weeks; for FE (Feed efficiency): feed/gain ratio; for FE, Percent (±) Control: percent improvement
Description: Evaluation of 3-[2-(tert-butylamino)-1-hydroxyethyl]-5-fluorobenzonitrile as an animal feed additive for (1) the enhancement of the growth rate of poultry, (2) improvement in feed utilization thereby, (3) increase in the deposition of muscle tissue or protein in said birds and (4) improvement in the carcass quality of treated birds
One-day old Hubbard X Hubbard Crossbred Chicks, randomly allotted to pens of ten chicks (five males and five females) each.
Eight pens of chicks are used for unmedicated controls, and six pens of chicks are used at each level of drug. The duration of the experiment is seven weeks.
The controls are offered an unmedicated diet of Broiler Ration No. 453 (composition given below) and water ad libitum. Medicated chicks are offered the same diet containing the test drug at the levels indicated above, and water ad libitum. The weight of the chicks is determined at the beginning and on completion of the experiments. Weight gains and the amount of feed consumed are also determined. In addition, ten males and ten females from each group are randomly selected and sacrificed by decapitation. These birds were bled, the feathers, feet, and viscera removed, and the resulting carcass weighed.
The thus-obtained data are averaged and summarized in Table IV below, wherein the percent improvement in weight gains and feed/gain ratios are given.

wether lambs = experiment: Evaluation in wether lambs (growth, feed efficiency, muscle, fat, carcass), eight weeks; conditions: for ADG (Average daily gain): eight weeks; for Subcutaneous Fat Depth Over Loin / Muscle Cross-Sectional Area: 12th rib; for Muscle Cross-Sectional Area: longissimus dorsi
Description: Evaluation of 3-[2-(tert-butylamino)1-hydroxyethyl]-5-fluorobenzonitrile for growth enhancement, feed efficiency improvement, increased deposition of muscle tissue and/or protein and improvement in carcass composition
To determine the effect of feeding experimental compounds to ruminants, wether lambs are randomly allotted to pens in groups of five. Three replications per treatment are used. The lambs are weighed and permitted feed and water ad libitum. The feed is weighed daily, and uneaten feed from the previous day is collected and weighed. Test lambs receive the same diet as control animals, but with the addition of experimental compound at a concentration of from 5 ppm to 20 ppm. The tests are conducted for a period of eight weeks at the end of which the lambs are again weighed, and the feed consumed calculated. The lambs are then necropsied. Eight animals per treatment are dressed, and the average cross-sectional area of the longissimus dorsi and depth of subcutaneous fat measured at the 12th rib.

CFI female mice [3] = experiment: Antilipogenic evaluation of test compounds - mouse study (fat pad and body weight, 12-day feeding); conditions: 12 days
Protocol: CFI female mice from Carworth Farms are received when they are six-weeks old. They are housed ten to a cage in air-conditioned rooms (22° C. to 25° C.) with automatically-controlled lights, 14 hours on and ten hours off. The basal diet used in these studies is Purina Laboratory Chow (see description below) which is supplied ad libitum. The following is a description of the diet to which the growth-promoting compounds were added. Meat and bone meal, dried skimmed milk, wheat germ meal, fish meal, animal liver meal, dried beet pulp, ground extruded corn, ground oat groats, soybean meal, dehydrated alfalfa metal, cane molasses, animal fat preserved with BHA, vitamin B12 supplement, calcium pantothenate, choline chloride, folic acid, riboflavin supplement, brewer's dried yeast, thiamin, niacin, vitamin A supplement, D-activated plant sterol, vitamin E supplement, calcium carbonate, dicalcium phosphate, iodized salt, ferric ammonium citrate, iron oxide, manganous oxide, cobalt carbonate, copper oxide, zinc oxide. Water is also allowed ad libitum. Thirteen days after arrival, the mice are weighed in groups of ten and assigned at random to the different treatments. Each of the treatments is tested in three replicates, i.e., in three cages of ten mice each. There are ten cages of ten control mice each. Drugs are mixed in the diet at the dosage level indicated. Feed and water are offered ad libitum for a 12-day test period. Feed spilled is collected during the test period. At the end of the test period, the collected feed is weighed, and the mean feed consumption per cage of ten mice is determined for each treatment. The mice are weighed as a group of ten, and the weight gain determined. The mice are sacrificed by cervical dislocation. The right uterine fat pad of each mouse is removed. The fat pads for each cage of ten mice are weighed as a unit. Reduction in fat pad weights of animals is generally indicative of a reduction of total body fat of the treated animals.

`CC(C)(C)NCC(O)c1cc(F)cc(C#N)c1` (stereo not drawn) [3-[2-(tert-Butylamino)-1-hydroxyethyl]-5-fluorobenzonitrile] was tested, and the “effectiveness as an antilipogenic agent” value (CFI female mice [1]) was “markedly more effective as an antilipogenic agent than its related aanalogues”, the “Carcass Yield” value ([2]; 0.25 ppm in diet) was 69.46% of live weight and the “Carcass Yield, Percent (±) Control” value ([2]; 0.25 ppm in diet) was “+1.0%”. For the same compound, the “Feed Consumed” value ([2]; 0.25 ppm in diet) was 2.576 kg, the “Feed Consumed, Percent (±) Control” value ([2]; 0.25 ppm in diet) was “+0.4%” and the “Gain, Percent (±) Control” value ([2]; 0.25 ppm in diet) was “+2.5%”. For the same compound, the Gain ([2]; 0.25 ppm in diet) was 1.105 kg, the “FE (Feed efficiency)” value ([2]; 0.25 ppm in diet) was 2.333 and the “FE, Percent (±) Control” value ([2]; 0.25 ppm in diet) was “+2.1%”. The “Carcass Yield” value ([2]; 0.5 ppm in diet) was 68.73% of live weight, the “Carcass Yield, Percent (±) Control” value ([2]; 0.5 ppm in diet) was 0.0% and the “Feed Consumed” value ([2]; 0.5 ppm in diet) was 2.571 kg. For the same compound, the “Feed Consumed, Percent (±) Control” value ([2]; 0.5 ppm in diet) was “+0.2%”, the “Gain, Percent (±) Control” value ([2]; 0.5 ppm in diet) was “+5.0%” and the Gain ([2]; 0.5 ppm in diet) was 1.132 kg. For the same compound, the “FE (Feed efficiency)” value ([2]; 0.5 ppm in diet) was 2.274, the “FE, Percent (±) Control” value ([2]; 0.5 ppm in diet) was “+4.6%” and the “Carcass Yield” value ([2]; 1 ppm in diet) was 69.66% of live weight. The “Carcass Yield, Percent (±) Control” value ([2]; 1 ppm in diet) was “+1.3%”, the “Feed Consumed” value ([2]; 1 ppm in diet) was 2.573 kg and the “Feed Consumed, Percent (±) Control” value ([2]; 1 ppm in diet) was “+0.2%”. For the same compound, the “Gain, Percent (±) Control” value ([2]; 1 ppm in diet) was “+1.9%”, the Gain ([2]; 1 ppm in diet) was 1.097 kg and the “FE (Feed efficiency)” value ([2]; 1 ppm in diet) was 2.350. For the same compound, the “FE, Percent (±) Control” value ([2]; 1 ppm in diet) was “+1.4%”, the “Carcass Yield” value ([2]; 2 ppm in diet) was 69.30% of live weight and the “Carcass Yield, Percent (±) Control” value ([2]; 2 ppm in diet) was “+0.8%”. The “Feed Consumed” value ([2]; 2 ppm in diet) was 2.578 kg, the “Feed Consumed, Percent (±) Control” value ([2]; 2 ppm in diet) was “+0.4%” and the “Gain, Percent (±) Control” value ([2]; 2 ppm in diet) was “+3.3%”. For the same compound, the Gain ([2]; 2 ppm in diet) was 1.114 kg, the “FE (Feed efficiency)” value ([2]; 2 ppm in diet) was 2.315 and the “FE, Percent (±) Control” value ([2]; 2 ppm in diet) was “+3.0%”. For the same compound, the “AD Feed Consumed (Average daily feed consumed)” value (wether lambs; 5 ppm in diet) was 1.43 kg/day, the “AD Feed Consumed, Percent (±) Control” value (wether lambs; 5 ppm in diet) was “+2.9%” and the “ADG, Percent (±) Control” value (wether lambs; 5 ppm in diet) was “+11.3%”. The “Carcass Yield” value (wether lambs; 5 ppm in diet) was 51.80% of live weight, the “Carcass Yield, Percent (±) Control” value (wether lambs; 5 ppm in diet) was “+1.8%” and the “FE (Feed efficiency)” value (wether lambs; 5 ppm in diet) was 6.36. For the same compound, the “FE, Percent (±) Control” value (wether lambs; 5 ppm in diet) was “+7.0%”, the “Muscle Cross-Sectional Area, Percent (±) Control” value (wether lambs; 5 ppm in diet) was “+6.8%” and the “Subcutaneous Fat Depth Over Loin, Percent (±) Control” value (wether lambs; 5 ppm in diet) was “+23.8%”. For the same compound, the “ADG (Average daily gain)” value (wether lambs; 5 ppm in diet) was 226 g, the “Subcutaneous Fat Depth Over Loin” value (wether lambs; 5 ppm in diet) was 3.2 cm and the “Muscle Cross-Sectional Area” value (wether lambs; 5 ppm in diet) was 17.69 cm^2. For the same compound, the “AD Feed Consumed (Average daily feed consumed)” value (wether lambs; 10 ppm in diet) was 1.50 kg/day, the “AD Feed Consumed, Percent (±) Control” value (wether lambs; 10 ppm in diet) was “+7.9%” and the “ADG, Percent (±) Control” value (wether lambs; 10 ppm in diet) was “+24.6%”. For the same compound, the “Carcass Yield” value (wether lambs; 10 ppm in diet) was 51.52% of live weight, the “Carcass Yield, Percent (±) Control” value (wether lambs; 10 ppm in diet) was “+1.3%” and the “FE (Feed efficiency)” value (wether lambs; 10 ppm in diet) was 5.91. For the same compound, the “FE, Percent (±) Control” value (wether lambs; 10 ppm in diet) was “+13.6%”, the “Muscle Cross-Sectional Area, Percent (±) Control” value (wether lambs; 10 ppm in diet) was “+11.4%” and the “Subcutaneous Fat Depth Over Loin, Percent (±) Control” value (wether lambs; 10 ppm in diet) was “+35.7%”. For the same compound, the “ADG (Average daily gain)” value (wether lambs; 10 ppm in diet) was 253 g, the “Subcutaneous Fat Depth Over Loin” value (wether lambs; 10 ppm in diet) was 2.7 cm and the “Muscle Cross-Sectional Area” value (wether lambs; 10 ppm in diet) was 18.44 cm^2. For the same compound, the “AD Feed Consumed (Average daily feed consumed)” value (wether lambs; 20 ppm in diet) was 1.39 kg/day, the “AD Feed Consumed, Percent (±) Control” value (wether lambs; 20 ppm in diet) was “+0.0%” and the “ADG, Percent (±) Control” value (wether lambs; 20 ppm in diet) was “+15.3%”. The “Carcass Yield” value (wether lambs; 20 ppm in diet) was 54.15% of live weight, the “Carcass Yield, Percent (±) Control” value (wether lambs; 20 ppm in diet) was “+6.5%” and the “FE (Feed efficiency)” value (wether lambs; 20 ppm in diet) was 5.92. For the same compound, the “FE, Percent (±) Control” value (wether lambs; 20 ppm in diet) was “+13.5%”, the “Muscle Cross-Sectional Area, Percent (±) Control” value (wether lambs; 20 ppm in diet) was “+24.2%” and the “Subcutaneous Fat Depth Over Loin, Percent (±) Control” value (wether lambs; 20 ppm in diet) was “+57.1%”. For the same compound, the “ADG (Average daily gain)” value (wether lambs; 20 ppm in diet) was 234 g, the “Subcutaneous Fat Depth Over Loin” value (wether lambs; 20 ppm in diet) was 1.8 cm and the “Muscle Cross-Sectional Area” value (wether lambs; 20 ppm in diet) was 20.56 cm^2.
`CC(C)NCC(O)c1cc(F)cc(C#N)c1` (stereo not drawn) [3-fluoro-5-[1-hydroxy-2-(isopropylamino)ethyl]-benzonitrile] was tested, and the “effectiveness as an antilipogenic agent” value (CFI female mice [1]; 100 ppm or 200 ppm in the diet) was “generally more effective as an antilipogenic agent than its related analogues”.
With `CC(C)(C)NCC(O)c1cc(F)cc(C#N)c1` (stereo not drawn) [drawing 13] the “% Change in Body Weight vs controls” value (CFI female mice [3]; 25 ppm in diet) was “+96.61%”, the “% Reduction in Fat Pad Weight vs Controls” value (from here on “% Reduction”) (CFI female mice [3]; 25 ppm in diet) was -8.97% and the “% Change in Body Weight vs controls” value (CFI female mice [3]; 50 ppm in diet) was “+80.51%”. The “% Reduction” value (CFI female mice [3]; 50 ppm in diet) was -14.04%, the “% Change in Body Weight vs controls” value (CFI female mice [3]; 100 ppm in diet) was “+65.25%” and the “% Reduction” value (CFI female mice [3]; 100 ppm in diet) was -29.65%. The “% Change in Body Weight vs controls” value (CFI female mice [3]; 200 ppm in diet) was “+55.93%” and the “% Reduction” value (CFI female mice [3]; 200 ppm in diet) was -38.13%.
With `CC(C)NCC(O)c1cc(F)cc(C#N)c1` (stereo not drawn) [drawing 14] the “% Change in Body Weight vs controls” value (CFI female mice [3]; 3 ppm in diet) was “+0.73%”, the “% Change in Body Weight vs controls” value (CFI female mice [3]; 6 ppm in diet) was “+40.88%” and the “% Reduction” value (CFI female mice [3]; 6 ppm in diet) was “+5.91%”. The “% Change in Body Weight vs controls” value (CFI female mice [3]; 12.5 ppm in diet) was “+26.28%”, the “% Reduction” value (CFI female mice [3]; 12.5 ppm in diet) was -11.76% and the “% Change in Body Weight vs controls” value (CFI female mice [3]; 25 ppm in diet) was “+29.20%”. The “% Reduction” value (CFI female mice [3]; 25 ppm in diet) was “+9.76%”, the “% Change in Body Weight vs controls” value (CFI female mice [3]; 50 ppm in diet) was “+78.10%” and the “% Reduction” value (CFI female mice [3]; 50 ppm in diet) was “+9.90%”. The “% Change in Body Weight vs controls” value (CFI female mice [3]; 100 ppm in diet) was “+56.93%”, the “% Reduction” value (CFI female mice [3]; 100 ppm in diet) was -17.71% and the “% Change in Body Weight vs controls” value (CFI female mice [3]; 200 ppm in diet) was “+88.32%”. For the same compound, the “% Reduction” value (CFI female mice [3]; 200 ppm in diet) was -33.29%, the “Mouse Test Fat Pad Weight % ± Control” value (CFI female mice [1]; 100 ppm) was -17.7% and the “Mouse Test Fat Pad Weight % ± Control” value (CFI female mice [1]; 200 ppm) was -33.3%.

Reference: US4614746A, “5-fluorobenzonitrile derivatives for increasing the lean meat to fat ratio and/or enhancing the growth rate of warm-blooded animals” (American Cyanamid Company, priority 1985, dated 1986)
